Among the data in a melting point compilation (Tetko et al.) are melting point values, retold here.

As usually defined, the melting point is the temperature, or range, at which the solid turns liquid. The molecule `CCOC(=O)c1cc(C)n(Cc2ccccc2)n1` came in with a melting point of 37 °C.

Turning to `Oc1cc(C(F)(F)F)nc2c(F)cccc12`, the melting point was determined as 113 °C.

`Cc1ccc(NN=C2C(=O)NN=C2c2c(O)c3ccccc3n(C)c2=O)cc1` returned a melting point of 218 °C.

In turn, `COC(=O)CC1CCC(NC(=O)OC(C)(C)C)CC1` (stereo not drawn) returned a melting point of 81 °C.

The molecule `N[C@@H](Cc1ccc(O)c([N+](=O)[O-])c1)C(=O)O` gave a melting point of 233 to 235 °C.

For the molecule `C=C(C(=O)OC1CC(C)=CCCC(CO)=CC2OC(=O)C(=C)C21)C(O)CO` (stereo not drawn), the melting point turned out to be 143 °C.

With `COc1ccc(C(=O)C(=O)c2ccc(OC)cc2)cc1`, the melting point is 131 to 134 °C.

For `CCC1(c2ccccc2)C(=O)N(COC)C(=O)N(COC)C1=O`, the melting point came to 117 °C.

In turn, `O=C1C=C(NCCCCc2ccccc2)C(=O)c2ccccc21` had a melting point of 137 °C.

`O=C(Nc1ccccc1)OCCc1ccc(CCOC(=O)Nc2ccccc2)cc1` showed a melting point of 213 °C.

Turning to `COC(=O)CCc1cccc(CCC(=O)OC)c1`, the melting point stood at 51 °C.

`NNC(=O)CCCO` showed a melting point of 93 °C.

Take `COc1ccc(CC(=O)O)cc1C`: the melting point was 93 to 95 °C.

On to `O=C1c2ccccc2C(=O)N1SC(Cl)(Cl)Cl`, for which the melting point was 178 °C.

As for `O=P(OC(Cl)CCCl)(OC(Cl)CCCl)OC(Cl)CCCl` (stereo not drawn), the melting point stood at 26.7 °C.

Turning to `COC(=O)/C(=C/c1ccc([N+](=O)[O-])cc1)c1ccccc1C(=O)OC`, the melting point lay in the range of 121 to 122 °C.

Molecule `Cc1cc(Br)ccc1N=C=S` had a melting point of 45 to 46 °C.

`N#Cc1cc(F)c(Cl)cc1Cl`: the melting point is 46 °C.

Turning to `CCc1oc2ccccc2c1C(=O)c1cc(I)c(O)c(I)c1`, the melting point is 167 °C.

`O=S1(=O)Cc2cccc3cccc(c23)C1` yielded a melting point of 238 to 240 °C.

`Nc1ccc(S(=O)(=O)F)cc1` had a melting point of 68.5 °C.

`O=C(Cl)c1cc(-c2ccc(Cl)cc2)oc1C(F)(F)F` showed a melting point of 135 to 137 °C.

Take `NCc1cc2cc(Br)ccc2o1`: the melting point lay in the range of 39 to 40 °C.

On to `Cn1c(/C(C#N)=N/Nc2ccccc2Cl)nc2ccccc21`, for which the melting point is 193 °C.

`Brc1cccc(Oc2ccc(Br)c(Br)c2)c1`: the melting point was < 20 °C.

In the case of `CC(CCC(C(=O)O)C(C)C)C(=O)O` (stereo not drawn), the melting point worked out at 104 °C.

With `COc1ccccc1C=CC(=O)c1ccc(O)cc1O`, the melting point stood at 177 °C.

`CCCCc1ccc(NC(=O)c2ccc(CC)cc2)cc1` came in with a melting point of 117 °C.

As to `COC(=O)CCC(C)C1CCC2C3CCC4CC(OC(C)=O)CCC4(C)C3CC(OC(C)=O)C12C` (stereo not drawn), the melting point turned out to be 116 °C.

Consider `CN(N)c1ccc(C(F)(F)F)cc1[N+](=O)[O-]`, for which the melting point is 68 to 70 °C.

With `COc1ccc(C(=O)/C=C(\C)c2ccc(OC)cc2)cc1`, the melting point lay in the range of 86 to 87 °C.

For `CN(N=O)C(N)=O`, the melting point was 121 °C.

In turn, `O=C(O)c1ccccc1OP(=O)(O)O` yielded a melting point of 168 °C.

For the molecule `CN1CCN(Cc2ccc(I)cc2)CC1`, the melting point fell in the range of 105 to 106 °C.

For `COC(=O)c1cc2oc(C=O)cc2n1C`, the melting point was in the range of 162 to 163 °C.

`CNC(=O)Oc1ccc(C)c(C)c1Cl` registered a melting point of 124 °C.

For the molecule `CCN(CC)C(=O)c1ccccc1CC(=O)c1ccccc1C`, the melting point is 47 °C.

`N[C@@H]1CCc2ccccc21` displayed a melting point of 15 °C.

With `OCCCc1ccccn1`, the melting point was determined as 34 °C.

The molecule `CCCCCCCCCCCCOC(=O)CCSCCC(=O)OCCCCCCCCCCCC` had a melting point of 41 °C.

Turning to `O=[N+]([O-])c1ccc(C(Br)C(Br)c2ccc(C(Br)C(Br)c3ccc([N+](=O)[O-])cc3[N+](=O)[O-])cc2)c([N+](=O)[O-])c1` (stereo not drawn), the melting point turned out to be 265 °C.

With `CON(/C=C1\C(=O)C2(C)CCC1C2(C)C)c1ccccc1` (stereo not drawn), the melting point was in the range of 75 to 76 °C.

Molecule `Cc1cc(C(=O)O)nn1C` gave a melting point of 175 to 178 °C.

As for `Cc1csc(C(=O)O)c1`, the melting point fell in the range of 124 to 125 °C.

In turn, `Nc1cccc(CN2CCOCC2)c1` yielded a melting point of 73 to 75 °C.

`COC(=O)c1cc(Cl)ccc1NC(C)=O` had a melting point of 130 °C.

`O=C1COc2cc(O)ccc21`: the melting point came to 241 °C.

For the molecule `CCOc1ccc(NC(=O)CN)cc1`, the melting point was found to be 100 °C.

Turning to `O=C(O)Cn1c(C(F)(F)F)nc2ccccc21`, the melting point was found to be 248 °C.

With `CN(C)CCC#N`, the melting point is -43 °C.

As for `COc1cc2c(c3oc(=O)c4c(c13)CCC4=O)C1CCOC1O2` (stereo not drawn), the melting point was found to be 288 °C.

Regarding `CC(=O)OCOC(=O)C1N2C(=O)C(NC(=O)Cc3ccccc3)C2SC1(C)C` (stereo not drawn), the melting point came to 107 °C.

Take `COc1ccc(/C=C(\C#N)c2nc(-c3ccco3)cs2)cc1`: the melting point turned out to be 109 °C.

Take `Cn1cnnc1-c1cccc(N)c1`: the melting point lay within 158 to 159 °C.

Molecule `Nc1c(F)cc(O)cc1F` returned a melting point of 149 °C.

Molecule `CCCN(CCC)c1c([N+](=O)[O-])cc(C(F)(F)F)cc1[N+](=O)[O-]` displayed a melting point of 49 °C.

Molecule `CCC1(C(=O)NC(C)c2ccc(Cl)cc2)C(C)C1(Cl)Cl` (stereo not drawn) displayed a melting point of 160 °C.

In turn, `O=C(O)c1cccc(-c2ccncc2)c1` returned a melting point of 268 °C.

For the molecule `OCc1ccc2occc2c1`, the melting point was 35 to 36 °C.

As for `O=C1CCCCC1C1=CCCCC1` (stereo not drawn), the melting point was -78 °C.

For the molecule `O=Cc1ccc2oc3ccccc3c2c1`, the melting point worked out at 74 °C.

For `Nc1cc(Cl)nc(Cl)c1`, the melting point came to 174 °C.

Turning to `O=C(O)CCC(F)(F)C(F)(F)C(F)(F)F`, the melting point lay in the range of 38 to 39 °C.

Turning to `O=C1C2=C(CCCC2)C(=O)N1CO`, the melting point lay within 80 to 84 °C.

On to `O=C1CCC(=O)N1c1ccccc1`, for which the melting point stood at 156 °C.

Turning to `CN(C(=S)C(=O)c1ccccc1)c1ccccc1`, the melting point stood at 109 °C.

Consider `Cc1cc(C(F)(F)F)n2nc(N)c(/N=N/c3ccc(Cl)cc3)c2n1`, for which the melting point turned out to be 250 °C.

Take `COc1ccc(C(=O)C2=NOC3C(=O)N(c4ccc(F)cc4)C(=O)C23)cc1` (stereo not drawn): the melting point was 141 °C.

`CCOC(=O)c1c(C)n(O)c2ccc3nonc3c12` gave a melting point of 229 to 231 °C.

As to `Oc1nnc(C2c3ccccc3Oc3ccccc32)o1`, the melting point fell in the range of 335 to 337 °C.

Take `COC(=O)c1cccc(C(=O)OC)n1`: the melting point came to 123 °C.

For the molecule `O=C(O)c1ccc(S)cc1`, the melting point worked out at 219 °C.

In turn, `CC(=O)Oc1ccc2c(C)cc(=O)oc2c1` yielded a melting point of 152 to 156 °C.

`COC(=O)c1cc2ccccc2[nH]1` gave a melting point of 151 to 153 °C.

As for `N#CC(=CNNc1ccccc1)c1ccccc1`, the melting point was in the range of 155 to 156 °C.

Consider `O=[N+]([O-])c1cc(/C=N\c2ccccc2)ccc1/C=N/c1ccccc1`, for which the melting point fell in the range of 133 to 134 °C.

The molecule `N#Cc1cccc2c1-c1ccccc1C2` gave a melting point of 77 to 79 °C.

The molecule `COc1nccnc1N(C(C)=O)S(=O)(=O)c1ccc(N)cc1` had a melting point of 199 °C.
